In one test the target is T1, KIT kinase (Homo sapiens, UniProt P10721).
T1 construct: made in house; host or cells: T7 phage display or HEK-293 cells
Put plainly: Competition binding assay, KIT Kd. The protocol: (§1) In certain embodiments, competition binding assays were performed as described in Fabian et al., Nature Biotechnology 2005, 23,329-336.
(§2) Competition binding assays used herein were developed, validated and performed as described in Fabian et al., Nature Biotechnology 2005, 23,329-336. Kinases were produced as fusions to T7 phage (See, Fabian et al. or WO04/015142) or alternatively, the kinases were expressed in HEK-293 cells and subsequently tagged with DNA for PCR detection (See, WO08/005,310). For the binding assays, streptavidin-coated magnetic beads were treated with biotinylated affinity ligands for 30 min at room temperature to generate affinity resins. The liganded beads were blocked with excess biotin and washed with blocking buffer (SeaBlock (Pierce), 1% BSA, 0.05% Tween 20, 1 mM DTT) to remove unbound ligand and to reduce non-specific binding. Binding reactions were assembled by combining kinase, liganded affinity beads, and test compounds in 1× binding buffer (20% SeaBlock, 0.17×PBS, 0.05% Tween 20, 6 mM DTT). Test compounds were prepared as 100× stocks in DMSO and diluted into the aqueous environment. Kds were determined using an eleven point threefold serial dilutions. DMSO or control compounds were was added to control assays lacking a test compound. Primary screen assays were performed in polypropylene 384-well plates in a final volume of 20-40 μL, while Kd determinations were performed in polystyrene 96-well plates in a final volume of 135 μL. The assay plates were incubated at room temperature with shaking for 1 hour to allow the binding reactions to reach equilibrium, and the affinity beads were washed extensively with wash buffer (1×PBS, 0.05% Tween 20) to remove unbound protein. The beads were then resuspended in elution buffer (1×PBS, 0.05% Tween 20, 0.5 μM non-biotinylated affinity ligand) and incubated at room temperature with shaking for 30 min. The kinase concentration in the eluates was measured by quantitative PCR.

The next test concerns the target T2, CSF-1R kinase (Homo sapiens, UniProt P07333).
T2 construct: made in house; host or cells: T7 phage display or HEK-293 cells
Put plainly: Competition binding assay, CSF-1R Kd. The protocol:
as §1, §2

For the next test, the target named is T3, FLT3 kinase (Homo sapiens, UniProt P36888).
T3 construct: made in house; host or cells: T7 phage display or HEK-293 cells
T3 sequence (P36888 27-993): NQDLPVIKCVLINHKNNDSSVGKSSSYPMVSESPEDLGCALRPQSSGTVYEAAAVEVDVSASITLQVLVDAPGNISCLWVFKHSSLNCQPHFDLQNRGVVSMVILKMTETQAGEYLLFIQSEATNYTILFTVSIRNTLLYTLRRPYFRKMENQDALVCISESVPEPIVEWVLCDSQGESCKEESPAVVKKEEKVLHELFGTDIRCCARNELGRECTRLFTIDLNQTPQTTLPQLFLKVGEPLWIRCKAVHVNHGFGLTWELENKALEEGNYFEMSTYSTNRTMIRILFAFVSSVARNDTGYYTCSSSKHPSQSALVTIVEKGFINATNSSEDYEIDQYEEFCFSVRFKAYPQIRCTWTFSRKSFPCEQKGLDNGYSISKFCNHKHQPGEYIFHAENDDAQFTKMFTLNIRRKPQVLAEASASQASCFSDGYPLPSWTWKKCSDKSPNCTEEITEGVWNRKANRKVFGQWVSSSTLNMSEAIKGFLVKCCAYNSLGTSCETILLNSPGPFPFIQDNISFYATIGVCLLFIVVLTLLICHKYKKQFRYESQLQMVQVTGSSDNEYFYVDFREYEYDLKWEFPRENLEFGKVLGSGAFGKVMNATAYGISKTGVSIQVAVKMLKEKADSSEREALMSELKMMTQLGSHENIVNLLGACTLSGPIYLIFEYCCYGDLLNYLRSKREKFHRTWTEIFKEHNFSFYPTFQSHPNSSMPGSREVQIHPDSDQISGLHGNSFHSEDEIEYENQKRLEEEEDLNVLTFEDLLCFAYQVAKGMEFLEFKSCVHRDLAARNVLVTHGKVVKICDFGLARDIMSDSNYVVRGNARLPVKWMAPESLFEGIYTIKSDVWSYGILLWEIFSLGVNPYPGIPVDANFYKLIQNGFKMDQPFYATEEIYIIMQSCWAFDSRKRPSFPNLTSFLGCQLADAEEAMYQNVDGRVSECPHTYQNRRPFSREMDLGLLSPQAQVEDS
As to the kind of experiment: Competition binding assay, FLT3 Kd. The protocol:
as §1, §2

The subject of the next test is MV4-11 cells. As to the kind of experiment: MV4-11 cell proliferation assay (Alamar Blue). The test is classed as cell-based. As to conditions: Homo sapiens, MV4-11, 72 h, 3 days incubation. The protocol:
The compounds disclosed herein were tested in an MV4-11 cell proliferation assay to determine their cellular potency against Flt3. MV4-11 cells carry ITD mutation within juxtamembrane domain of Flt3 kinase which renders the kinase constitutively active. […] This assay measures the potency of compounds as Flt3 inhibitors by measuring the reduction of Alamar Blue reagent by viable cells.
MV4-11 cells were grown in an incubator at 37° C. under 5% CO2 in Iscove's media (Celgro) with 10% FBS. The cell density was kept between 1e5 and 8e5 cells/mL.
On day one of the experiment, cells were harvested and spun at 500 g for 5 min at 4° C., the supernatant aspirated and the cells resuspended in Iscove's media with 0.5% FBS. Cell density was maintained at 7.5e5 to achieve maximum viability of the cells. The resuspended cells were incubated at 37° C. in 5% CO2 overnight.
On day two of the experiment, cells were diluted to 6.4e5/mL with Iscove's media with 0.5% FBS. 100 μL of the cell suspension (64,000 cells) were aliquoted into each well of a 96-well TC-treated plate. Compounds were added at 9 different concentrations, with half-log intervals alongside a control reference compound serving as a positive control. Final DMSO concentration was kept at 0.5% and final volume at 200 μL. The cells were then incubated at 37° C. under 5% CO2 for 3 days.
On day five of the experiment, 40 μL of Alamar Blue reagent was added to each well and the mixture was allowed to incubate for 3 hours. Alamar Blue fluorescence was measured using SoftMax Pro software at 560 nm (excitation) and 590 nm (emission). IC50s were generated as an average of duplicates and represents the concentration of test compound that achieves 50% inhibition of cellular proliferation compared to negative control.
(In general: Resazurin is reduced to fluorescent resorufin, in cell work by metabolically active cells.)

T2 sequence (P07333 20-972): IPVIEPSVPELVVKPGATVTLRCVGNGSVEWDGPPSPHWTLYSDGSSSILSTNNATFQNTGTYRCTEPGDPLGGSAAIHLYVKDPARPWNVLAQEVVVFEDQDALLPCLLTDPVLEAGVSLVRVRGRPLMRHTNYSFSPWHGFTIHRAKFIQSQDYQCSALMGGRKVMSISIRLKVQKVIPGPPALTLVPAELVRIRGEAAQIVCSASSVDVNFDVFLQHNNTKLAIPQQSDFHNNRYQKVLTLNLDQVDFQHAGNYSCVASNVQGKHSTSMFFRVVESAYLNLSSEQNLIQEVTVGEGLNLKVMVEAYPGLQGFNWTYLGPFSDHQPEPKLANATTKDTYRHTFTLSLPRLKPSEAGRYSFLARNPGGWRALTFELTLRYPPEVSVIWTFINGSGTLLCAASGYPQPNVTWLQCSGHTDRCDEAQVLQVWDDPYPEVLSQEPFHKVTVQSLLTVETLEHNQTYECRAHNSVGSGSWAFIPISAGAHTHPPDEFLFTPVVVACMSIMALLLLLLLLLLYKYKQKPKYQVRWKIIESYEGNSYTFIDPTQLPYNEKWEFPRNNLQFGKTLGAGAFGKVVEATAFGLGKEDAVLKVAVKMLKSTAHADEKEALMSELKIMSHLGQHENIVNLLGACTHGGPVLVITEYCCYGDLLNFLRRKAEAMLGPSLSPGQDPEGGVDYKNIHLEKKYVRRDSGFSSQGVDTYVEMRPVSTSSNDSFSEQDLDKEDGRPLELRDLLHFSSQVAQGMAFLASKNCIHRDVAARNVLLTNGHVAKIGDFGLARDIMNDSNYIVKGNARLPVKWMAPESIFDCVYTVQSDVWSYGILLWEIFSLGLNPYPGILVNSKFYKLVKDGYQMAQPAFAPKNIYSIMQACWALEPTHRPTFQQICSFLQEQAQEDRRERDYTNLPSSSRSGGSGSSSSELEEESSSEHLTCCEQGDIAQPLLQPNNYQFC
T1 sequence (P10721 26-976): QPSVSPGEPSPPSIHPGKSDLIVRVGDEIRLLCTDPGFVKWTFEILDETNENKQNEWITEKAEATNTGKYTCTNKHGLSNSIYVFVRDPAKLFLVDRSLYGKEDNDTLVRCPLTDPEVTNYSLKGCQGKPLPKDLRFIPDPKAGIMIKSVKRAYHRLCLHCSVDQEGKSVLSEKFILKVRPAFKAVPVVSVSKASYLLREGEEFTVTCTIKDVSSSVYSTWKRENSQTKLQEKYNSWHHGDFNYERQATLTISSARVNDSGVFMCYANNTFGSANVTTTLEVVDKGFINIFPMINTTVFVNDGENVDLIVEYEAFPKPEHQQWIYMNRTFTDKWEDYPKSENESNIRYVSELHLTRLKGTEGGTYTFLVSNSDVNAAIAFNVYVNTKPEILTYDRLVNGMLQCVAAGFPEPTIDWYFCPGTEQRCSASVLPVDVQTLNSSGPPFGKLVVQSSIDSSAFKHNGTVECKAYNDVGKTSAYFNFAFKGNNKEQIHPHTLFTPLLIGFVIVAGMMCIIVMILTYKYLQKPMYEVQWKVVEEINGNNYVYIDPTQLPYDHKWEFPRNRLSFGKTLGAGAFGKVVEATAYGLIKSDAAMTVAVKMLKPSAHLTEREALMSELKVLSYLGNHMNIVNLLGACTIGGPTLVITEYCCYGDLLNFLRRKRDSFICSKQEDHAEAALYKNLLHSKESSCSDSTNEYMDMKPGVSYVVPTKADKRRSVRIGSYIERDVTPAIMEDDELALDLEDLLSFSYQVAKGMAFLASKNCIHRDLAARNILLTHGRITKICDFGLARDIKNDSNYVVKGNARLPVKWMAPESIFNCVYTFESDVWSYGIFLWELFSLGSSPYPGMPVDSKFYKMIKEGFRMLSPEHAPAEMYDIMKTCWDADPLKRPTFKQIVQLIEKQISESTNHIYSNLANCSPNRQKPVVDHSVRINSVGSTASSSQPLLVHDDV

In the case of `CC(C)(CO)c1cc(NC(=O)Nc2ccc(-c3ccc(N)nc3)cc2)on1` [Example 81, 5-(4-(3-(3-(1-hydroxy-2-methylpropan-2-yl)isoxazol-5-yl)ureido)phenyl)pyridin-2-aminium methanesulfonate], the dissociation constant Kd on KIT kinase was 1 to 10 nM; on CSF-1R kinase it was at most 10 nM; at FLT3 kinase, 1 to 10 nM. The IC50 with MV4-11 cells lay in the range of 10 to 100 nM.

As to `Cn1nc(C(C)(C)CO)cc1NC(=O)Nc1ccc(-c2ccc(N)nc2)cc1` [Example 82, 5-(4-(3-(3-(1-hydroxy-2-methylpropan-2-yl)-1-methyl-1H-pyrazol-5-yl)ureido)phenyl)pyridin-2-aminium methanesulfonate], the dissociation constant Kd lay within 1 to 10 nM at KIT kinase, 10 to 100 nM at CSF-1R kinase and 1 to 10 nM at FLT3 kinase. The compound also displayed a half-maximal inhibitory concentration (IC50) in the test with MV4-11 cells of 100 to 500 nM.

Turning to `CC(C)(CO)c1cc(NC(=O)Cc2ccc(-c3ccc(N)nc3)cc2)on1` [Example 83, 5-(4-(2-((3-(1-hydroxy-2-methylpropan-2-yl)isoxazol-5-yl)amino)-2-oxoethyl)phenyl)pyridin-2-aminium methanesulfonate], the results for the Kd on KIT kinase, at CSF-1R kinase and on FLT3 kinase were 1 to 10 nM, at most 10 nM and at most 1 nM, respectively. This compound returned an IC50 in the test on MV4-11 cells of 10 to 100 nM.

`CC(C)(C)c1cc(NC(=O)Cc2ccc(-c3ccc(N)nc3)cc2)on1` [Example 84, 5-(4-(2-(3-tert-butylisoxazol-5-ylamino)-2-oxoethyl)phenyl)pyridin-2-aminium methanesulfonate]: the values for the Kd on KIT kinase, on CSF-1R kinase and on FLT3 kinase were 1 to 10 nM, at most 10 nM and at most 1 nM, respectively. For the same compound, the IC50 in the test on MV4-11 cells is at most 1 nM.

In the case of `Cc1cc(-c2ccc(CC(=O)Nc3cc(C(C)(C)C)on3)cc2)cnc1N` [Example 85, 5-(4-(2-(5-tert-butylisoxazol-3-ylamino)-2-oxoethyl)phenyl)-3-methylpyridin-2-aminium methanesulfonate], the Kd on KIT kinase is 1 to 10 nM; on CSF-1R kinase it was at most 10 nM; at FLT3 kinase, at most 1 nM. Further, the IC50 with MV4-11 cells is at most 1 nM.

As for `Cc1cc(N)ncc1-c1ccc(CC(=O)Nc2cc(C(C)(C)C)on2)cc1` [Example 86, 5-(4-(2-(5-tert-butylisoxazol-3-ylamino)-2-oxoethyl)phenyl)-4-methylpyridin-2-aminium methanesulfonate], the Kd on KIT kinase was 1 to 10 nM; at CSF-1R kinase, 10 to 100 nM; on FLT3 kinase, at most 1 nM. The IC50 with MV4-11 cells is 10 to 100 nM.

Turning to `Cc1nc(N)ccc1-c1ccc(CC(=O)Nc2cc(C(C)(C)C)on2)cc1` [Example 87, 5-(4-(2-(5-tert-butylisoxazol-3-ylamino)-2-oxoethyl)phenyl)-6-methylpyridin-2-aminium methanesulfonate], the Kd was 1 to 10 nM on KIT kinase, 10 to 100 nM at CSF-1R kinase and at most 1 nM at FLT3 kinase. Moreover, the concentration for half-maximal inhibition (IC50) with MV4-11 cells was 10 to 100 nM.

Take `CC(C)(CO)c1cc(NC(=O)Cc2ccc(-c3ccc(N)nc3)cc2)no1` [Example 88, 5-(4-(2-(5-(1-hydroxy-2-methylpropan-2-yl)isoxazol-3-ylamino)-2-oxoethyl)phenyl)pyridin-2-aminium methanesulfonate]: the Kd on KIT kinase is 1 to 10 nM; on CSF-1R kinase, 10 to 100 nM; on FLT3 kinase, at most 1 nM. The IC50 with MV4-11 cells was 1 to 10 nM.

On to `COCCNc1ccc(-c2ccc(CC(=O)Nc3cc(C(C)(C)C)on3)cc2)cn1` [Example 89, 5-(4-(2-(5-tert-butylisoxazol-3-ylamino)-2-oxoethyl)phenyl)-N-(2-methoxyethyl)pyridin-2-aminium methanesulfonate], for which the Kd on KIT kinase is 1 to 10 nM; at CSF-1R kinase, at most 10 nM; on FLT3 kinase, at most 1 nM. The half-maximal inhibitory concentration (IC50) in the test with MV4-11 cells is 1 to 10 nM.

As to `Cn1nc(C(C)(C)CF)cc1NC(=O)Nc1ccc(-c2ccc(N)nc2)cc1` [Example 90, 5-(4-(3-(3-(1-fluoro-2-methylpropan-2-yl)-1-methyl-1H-pyrazol-5-yl)ureido)phenyl)pyridin-2-aminium acetate], the figures for the dissociation constant (Kd) at KIT kinase, on CSF-1R kinase and at FLT3 kinase were 1 to 10 nM, 10 to 100 nM and 1 to 10 nM, respectively. This compound gave an IC50 with MV4-11 cells of 100 to 500 nM.

For `CC(C)(C)c1cc(NC(=O)Cc2ccc(-c3cnc(N)c(C#N)c3)cc2)no1` [Example 93, 5-(4-(2-(5-tert-butylisoxazol-3-ylamino)-2-oxoethyl)phenyl)-3-cyanopyridin-2-aminium methanesulfonate], the results for the dissociation constant Kd on KIT kinase, at CSF-1R kinase and at FLT3 kinase were 1 to 10 nM, at most 10 nM and 1 to 10 nM, respectively. This compound displayed an IC50 in the test on MV4-11 cells of at most 1 nM.

Take `CC(C)(C)c1cc(NC(=O)Cc2ccc(-c3cnc(N)c(C(N)=O)n3)cc2)no1` [Example 114, 5-(4-(2-(5-tert-butylisoxazol-3-ylamino)-2-oxoethyl)phenyl)-3-carbamoylpyrazin-2-aminium methanesulfonate]: the results for the Kd on KIT kinase, on CSF-1R kinase and on FLT3 kinase were at most 1 nM, at most 10 nM and at most 1 nM, respectively. In addition, the IC50 with MV4-11 cells was at most 1 nM.

As for `CC(C)(C)c1cc(NC(=O)Cc2ccc(-c3cnc4c(c3)CCCN4)cc2)no1` [Example 120, 6-(4-(2-((5-(tert-butyl)isoxazol-3-yl)amino)-2-oxoethyl)phenyl)-1,2,3,4-tetrahydro-1,8-naphthyridin-1-ium methanesulfonate], the figures for the dissociation constant (Kd) on KIT kinase, on CSF-1R kinase and at FLT3 kinase were 1 to 10 nM, at most 10 nM and at most 1 nM, respectively. The half-maximal inhibitory concentration (IC50) in the test on MV4-11 cells lay within 1 to 10 nM.

Take `CS(=O)(=O)O.Nc1ncc(-c2ccc(CC(=O)Nc3cc(C4(C(F)(F)F)CC4)on3)cc2)cc1F` [Example 127, 3-fluoro-5-(4-(2-oxo-2-(5-(1-(trifluoromethybcyclopropybisoxazol-3-ylamino)ethyl)phenyl)pyridin-2-aminium methanesulfonate]: the Kd on KIT kinase is 1 to 10 nM; at CSF-1R kinase, at most 10 nM; at FLT3 kinase, at most 1 nM. The IC50 with MV4-11 cells was at most 1 nM.

What is called Kd is a measure of binding affinity in units of concentration. By IC50 is commonly meant the point on the concentration scale where inhibition reaches its midpoint.

These data come from US20130035326A1 (AMBIT BIOSCIENCES CORPORATION, priority 2009, published 2013).
